Patent US20110117055A1, “Methods of Treating Hepatitis C Virus with Oxoacetamide Compounds” (priority 2009, published 2011)

Each compound was assayed on HCV2aChLuc virus (assay: In vitro HCVcc entry assay: HCV2aChLuc virus infection of Huh7 cells, Renilla luciferase read-out). Settings: Hepatitis C virus, Huh-7, read-out: Activity class (IC50), tested according to the method of Example 3.
Assay type: cell-based, HCV genotype 2a
Compound `COc1ccc(C(C)(C)c2ccccc2)cc1NC(=O)C(=O)c1ccc(OCCN2CCOCC2)c2ccccc12` [Compound 16, N-(2-methoxy-5-(2-phenylpropan-2-yl)phenyl)-2-(4-(2-morpholinoethoxy)naphthalen-1-yl)-2-oxoacetamide] has an IC50 of under 5 nM. For `COc1c(NC(=O)C(=O)c2ccc(OC)c3ccccc23)cc(C(C)(C)C)cc1C(=O)NCC1CC1` [Compound 17, 5-tert-butyl-N-(cyclopropylmethyl)-2-methoxy-3-(2-(4-methoxynaphthalen-1-yl)-2-oxoacetamido)benzamide], the IC50 was under 5 nM. `CCCNC(=O)c1cc(C(C)(C)C)cc(NC(=O)C(=O)c2ccc(OCCN3CCOCC3)c3ccccc23)c1OC` [Compound 18, 5-tert-butyl-2-methoxy-3-(2-(4-(2-morpholinoethoxy)naphthalen-1-yl)-2-oxoacetamido)-N-propylbenzamide] showed an IC50 of under 5 nM. `CCOc1ccc(C(=O)C(=O)Nc2cc(C(C)(C)C)ccc2OC)c2ccccc12` [Compound 19, N-(5-tert-butyl-2-methoxyphenyl)-2-(4-ethoxynaphthalen-1-yl)-2-oxoacetamide] was tested, and the IC50 was under 5 nM. `COc1ccc(C(C)(C)C)cc1NC(=O)C(=O)c1ccc(OC(C)C)c2ccccc12` [Compound 20, N-(5-tert-butyl-2-methoxyphenyl)-2-oxo-2-[4-(propan-2-yloxy)naphthalen-1-yl]acetamide] showed an IC50 of under 5 nM. Work on `COc1c(NC(=O)C(=O)c2ccc(OCCN3CCOCC3)c3ccccc23)cc(C(C)(C)C)cc1NC(=O)N1CCCC1` [Compound 22] yielded an IC50 of 5 to 500 nM. With `CCC(C)(C)c1cc(NC(=O)C(=O)c2ccc(OCCN3CCOCC3)c3ccccc23)c(OC)c(C(C)(C)CC)c1` [Compound 23] the IC50 was 5 to 500 nM. For `COc1c(NC(=O)C(=O)c2ccc(OCCN3CCOCC3)c3ccccc23)cc(C(C)(C)C)cc1C(=O)N1CCOCC1` [Compound 24], the IC50 was 5 to 500 nM. Work on `COc1c(NC(=O)C(=O)c2ccc(OCCN3CCOCC3)c3ccccc23)cc(C(C)(C)C)cc1C(=O)N1CCCCC1` [Compound 25] yielded an IC50 of 5 to 500 nM. In the case of `COc1c(NC(=O)C(=O)c2ccc(OCCN3CCOCC3)c3ccccc23)cc(C(C)(C)C)cc1C(=O)N1CCNC(=O)C1` [Compound 26], the IC50 is reported as 5 to 500 nM. `CC(C)(C)c1cccc(NC(=O)C(=O)c2ccc(OCCN3CCOCC3)c3ccccc23)c1` [Compound 27] showed an IC50 of over 500 nM. `COc1ccc(C(F)(F)F)cc1NC(=O)C(=O)c1ccc(OCCN2CCOCC2)c2ccccc12` [Compound 28] was tested, and the IC50 was over 500 nM. Work on `CC(C)(C)c1cc(CN2CCOCC2)c(O)c(NC(=O)C(=O)c2ccc(OCCN3CCOCC3)c3ccccc23)c1` [Compound 29] yielded an IC50 of over 500 nM. `Cc1cc(C(C)(C)C)cc(NC(=O)C(=O)c2ccc(OCCN3CCOCC3)c3ccccc23)c1O` [Compound 30] gave an IC50 of over 500 nM. Compound `COc1c(C)cc(C(C)(C)C)cc1NC(=O)C(=O)c1ccc(OCCN2CCOCC2)c2ccccc12` [Compound 31] has an IC50 of over 500 nM. `CC(C)(C)c1ccc(NC(=O)C(=O)c2ccc(OCCN3CCOCC3)c3ccccc23)cc1` [Compound 32] gave an IC50 of over 500 nM. With `CC(C)(C)c1cc(NC(=O)C(=O)c2ccc(OCCN3CCOCC3)c3ccccc23)c(O)c(C(N)=O)c1` [Compound 33] the IC50 was over 500 nM. With `CC(C)(C)c1cc(NC(=O)C(=O)c2ccc(OCCN3CCOCC3)c3ccccc23)n(-c2ccccc2)n1` [Compound 34] the IC50 was over 500 nM. Compound `COc1ccc(-n2nc(C(C)(C)C)cc2NC(=O)C(=O)c2ccc(OCCN3CCOCC3)c3ccccc23)cc1` [Compound 35] has an IC50 of over 500 nM. `Cc1ccc(-n2nc(C(C)(C)C)cc2NC(=O)C(=O)c2ccc(OCCN3CCS(=O)(=O)CC3)c3ccccc23)cc1` [Compound 36] showed an IC50 of over 500 nM. For `Cc1ccc(-n2nc(C(C)(C)C)cc2NC(=O)C(=O)c2ccc(OCCN3CC[S+]([O-])CC3)c3ccccc23)cc1` [Compound 37], the IC50 was over 500 nM. `Cc1ccc(-n2nc(C(C)(C)C)cc2NC(=O)C(=O)c2ccc(OCCN3CCCOCC3)c3ccccc23)cc1` [Compound 38] gave an IC50 of over 500 nM. For `Cc1ccc(-n2nc(C(C)(C)C)cc2NC(=O)C(=O)c2ccc(CCN3CCNCC3)c3ccccc23)cc1` [Compound 39], the IC50 was over 500 nM. `CCOc1ccc(C(C)(C)C)cc1NC(=O)C(=O)c1ccc(OCCN2CCOCC2)c2ccccc12` [Compound 41] was tested, and the IC50 was over 500 nM. In the case of `CC(C)Oc1ccc(C(C)(C)C)cc1NC(=O)C(=O)c1ccc(OCCN2CCOCC2)c2ccccc12` [Compound 42], the IC50 is reported as over 500 nM. Work on `CC(C)(C)c1ccccc1NC(=O)C(=O)c1ccc(OCCN2CCOCC2)c2ccccc12` [Compound 43] yielded an IC50 of over 500 nM. For `CC(C)(C)c1cc(NC(=O)C(=O)c2ccc(OCCN3CCOCC3)c3ccccc23)[nH]n1` [Compound 44], the IC50 was over 500 nM. `Cc1cc(-n2nc(C(C)(C)C)cc2NC(=O)C(=O)c2ccc(OCCN3CCOCC3)c3ccccc23)ccc1F` [Compound 45] showed an IC50 of over 500 nM. Work on `CC(=O)n1nc(C(C)(C)C)cc1NC(=O)C(=O)c1ccc(OCCN2CCOCC2)c2ccccc12` [Compound 46] yielded an IC50 of over 500 nM. `CC(C)(C)c1cc(C(F)(F)F)nc(NC(=O)C(=O)c2ccc(OCCN3CCOCC3)c3ccccc23)n1` [Compound 47] was tested, and the IC50 was over 500 nM. Work on `CC(C)(C)c1cc(N)nc(NC(=O)C(=O)c2ccc(OCCN3CCOCC3)c3ccccc23)n1` [Compound 48] yielded an IC50 of over 500 nM. `Cc1cccc(-n2nc(C(C)(C)C)cc2NC(=O)C(=O)c2ccc(OCCN3CCOCC3)c3ccccc23)c1C` [Compound 49] showed an IC50 of over 500 nM. For `Cn1nc(C(C)(C)C)cc1NC(=O)C(=O)c1ccc(OCCN2CCOCC2)c2ccccc12` [Compound 50], the IC50 was over 500 nM. `COc1c(NC(=O)C(=O)c2ccc(OCCN3CCN(C)CC3)c3ccccc23)cc(C(C)(C)C)cc1NS(C)(=O)=O` [Compound 51] was tested, and the IC50 was over 500 nM. Work on `CCOC(=O)N1CCN(CCOc2ccc(C(=O)C(=O)Nc3cc(C(C)(C)C)cc(NS(C)(=O)=O)c3OC)c3ccccc23)CC1` [Compound 52] yielded an IC50 of 5 to 500 nM. Compound `COc1c(NC(=O)C(=O)c2ccc(OCCN3CCNC(=O)C3)c3ccccc23)cc(C(C)(C)C)cc1NS(C)(=O)=O` [Compound 53] has an IC50 of over 500 nM. For `COc1c(NC(=O)C(=O)c2ccc(OCCN3CCN(C(C)=O)CC3)c3ccccc23)cc(C(C)(C)C)cc1NS(C)(=O)=O` [Compound 54], the IC50 was 5 to 500 nM. For `COc1c(NC(=O)C(=O)c2ccc(OCCn3ccnc3)c3ccccc23)cc(C(C)(C)C)cc1NS(C)(=O)=O` [Compound 55], the IC50 was 5 to 500 nM. In the case of `COc1c(NC(=O)C(=O)c2ccc(OCCN3CCN(C(=O)OC(C)(C)C)CC3)c3ccccc23)cc(C(C)(C)C)cc1NS(C)(=O)=O` [Compound 56], the IC50 is reported as 5 to 500 nM. Work on `COc1c(NC(=O)C(=O)c2ccc(OCCN3CC(C)OC(C)C3)c3ccccc23)cc(C(C)(C)C)cc1NS(C)(=O)=O` (stereo not drawn) [Compound 57] yielded an IC50 of 5 to 500 nM. With `COc1c(NC(=O)C(=O)c2ccc(OCCN3CCNCC3)c3ccccc23)cc(C(C)(C)C)cc1NS(C)(=O)=O` [Compound 58] the IC50 was over 500 nM. For `CC(C)(C)c1cc(NC(=O)C(=O)c2ccc(OCCN3CCOCC3)c3ccccc23)n(C(C)(C)C)n1` [Compound 59], the IC50 was over 500 nM. `CC(C)(C)c1cc(NC(=O)C(=O)c2ccc(OCCN3CCOCC3)c3ccccc23)no1` [Compound 60] gave an IC50 of over 500 nM. With `CC(C)(C)c1nnc(NC(=O)C(=O)c2ccc(OCCN3CCOCC3)c3ccccc23)s1` [Compound 61] the IC50 was over 500 nM. Compound `Cc1ccc(C(C)C)cc1NC(=O)C(=O)c1ccc(OCCN2CCOCC2)c2ccccc12` [Compound 62] has an IC50 of 5 to 500 nM. In the case of `Cc1ccc(C)c(NC(=O)C(=O)c2ccc(OCCN3CCOCC3)c3ccccc23)c1` [Compound 63], the IC50 is reported as over 500 nM. `O=C(Nc1ccc2c(c1)CCC2)C(=O)c1ccc(OCCN2CCOCC2)c2ccccc12` [Compound 64] was tested, and the IC50 was over 500 nM. Work on `O=C(Nc1cccc2c1CCC2)C(=O)c1ccc(OCCN2CCOCC2)c2ccccc12` [Compound 65] yielded an IC50 of 5 to 500 nM. `CC(C)(C)CCNC(=O)C(=O)c1ccc(OCCN2CCOCC2)c2ccccc12` [Compound 66] was tested, and the IC50 was over 500 nM. For `CC(C)(C)CC(C)(C)NC(=O)C(=O)c1ccc(OCCN2CCOCC2)c2ccccc12` [Compound 67], the IC50 was over 500 nM. `O=C(N[C@@H]1C[C@H]2CC[C@@H]1C2)C(=O)c1ccc(OCCN2CCOCC2)c2ccccc12` [Compound 68] showed an IC50 of over 500 nM. Compound `CC1(C)[C@@H]2CC[C@@]1(C)[C@@H](NC(=O)C(=O)c1ccc(OCCN3CCOCC3)c3ccccc13)C2` [Compound 69] has an IC50 of over 500 nM. With `CC(C)(C)c1cc(NC(=O)C(=O)c2ccc(OCCN3CCOCC3)c3ccccc23)on1` [Compound 70] the IC50 was over 500 nM. In the case of `CCNC(=O)c1cc(C(C)(C)C)cc(NC(=O)C(=O)c2ccc(OCCN3CCOCC3)c3ccccc23)c1O` [Compound 71], the IC50 is reported as 5 to 500 nM. In the case of `COc1c(Cl)cc(C(C)(C)C)cc1NC(=O)C(=O)c1ccc(OCCN2CCOCC2)c2ccccc12` [Compound 72], the IC50 is reported as 5 to 500 nM. In the case of `COc1ccc(C(C)(C)C)cc1NC(=O)C(=O)c1ccc(Nc2ccnc(N3CCOCC3)n2)c2ccccc12` [Compound 73], the IC50 is reported as over 500 nM. With `COc1c(NC(=O)C(=O)c2ccc(OCCN3CCOCC3)c3ccc(Cl)cc23)cc(C(C)(C)C)cc1NS(C)(=O)=O` [Compound 74] the IC50 was 5 to 500 nM. Compound `COc1c(NC(=O)C(=O)c2ccc(OC)c3ccccc23)cc(C(C)(C)C)cc1NS(C)(=O)=O` [Compound 75] has an IC50 of 5 to 500 nM. `COc1c(NC(=O)C(=O)c2ccc(OCCN3CCOCC3)c3cccc(Cl)c23)cc(C(C)(C)C)cc1NS(C)(=O)=O` [Compound 76] was tested, and the IC50 was over 500 nM. For `COc1c(NC(=O)C(=O)c2ccc(OC)c3ccccc23)cc(C(C)(C)C)cc1C(N)=O` [Compound 77], the IC50 was over 500 nM. `CCCS(=O)(=O)Nc1cc(C(C)(C)C)cc(NC(=O)C(=O)c2ccc(OC)c3ccccc23)c1OC` [Compound 78] was tested, and the IC50 was 5 to 500 nM. Compound `CCN(CC)CCOc1ccc(C(=O)C(=O)Nc2cc(C(C)(C)C)cc(NS(C)(=O)=O)c2OC)c2ccccc12` [Compound 79] has an IC50 of over 500 nM. For `COc1c(NC(=O)C(=O)c2ccc(OCCN(C)C)c3ccccc23)cc(C(C)(C)C)cc1NS(C)(=O)=O` [Compound 80], the IC50 was over 500 nM. With `O=C(Nc1cnc2ccccc2c1)C(=O)c1ccc(OCCN2CCOCC2)c2ccccc12` [Compound 81] the IC50 was over 500 nM. For `O=C(Nc1cc(C(F)(F)F)ccc1Cl)C(=O)c1ccc(OCCN2CCOCC2)c2ccccc12` [Compound 82], the IC50 was over 500 nM. Work on `O=C(Nc1cc(C(F)(F)F)ccc1Br)C(=O)c1ccc(OCCN2CCOCC2)c2ccccc12` [Compound 83] yielded an IC50 of over 500 nM.
